Measurements as given in patent US12168006B2, “Cancer therapy by degrading dual MEK signaling” (The Board of Trustees of the University of Illinois, priority 2017, dated 2024).
“Also recorded” adds a separate entry of the source.

Tests used:
PC-9 GR and H1975 cells = experiment: Cell viability assay (SRB); format: cell-based, human; settings: 5-day incubation
Experimental: Final concentration of DMSO in each well is 0.5%. At the end of 5 days, viability was assessed by the sulforhodamine B (SRB) assay sulforhodamine B (SRB) assay. Briefly, 100 μL of 10% trichloroacetic acid (TCA) was added in each well and the plate was incubated for at least 1 hour at 4° C. After the 4° C. incubation, the plate was washed with water and allowed to dry for at least 1 hour at room temperature. 100 μL of SRB dye (1% w/v) was added to each well and incubated for 30 minutes at room temperature. At the end of the 30 minutes incubation, the plate was washed with 1% acetic acid solution and allowed to dry at room temperature. Finally, 200 μL of Tris solution (pH>10) was added to each well to dissolve the SRB dye. The absorbance of each well was read with a SpectraMax M3 plate reader (Molecular Devices) at 510 nm.

Lyn = settings: Ba/F3 cells; cited from earlier work
AKT = settings: cited from earlier work
H3122 cells = experiment: Long term experiments with EML4-ALK cell line; settings: for cytotoxic effect / cell proliferation: 8 days, PAC-1 2 μM, trametinib 5 nM
Experimental: H3122 cells were seeded at 10,000 cells per well in 6 well plates and allowed to adhere overnight. […] Media was refreshed every 3-4 days with new compounds. At the end of the incubation period, cells were fixed 10% trichloroacetic acid, stained with SRB, imaged using GelDoc XR, and absorbance at 510 nm read using SpectraMax M3 (Molecular Devices) plate reader.

A375 cells = experiment: Long term experiments in BRAF^V600E cell lines; format: cell-based, human; settings: continuous treatment
Experimental: (§1) This assay was performed as described previously. Briefly, 100-250 cells were seeded and allowed to adhere overnight. […] Media was refreshed with new compounds added every 3-4 days.

caspase-3/-7 = experiment: Caspase-3/-7 activity assay; format: cell-based, human
Experimental: H3122 cells were seeded at 4,000 cells per well and allowed to adhere overnight. […] 10 μM raptinal was used as the positive control throughout the experiment. […] Plates were pre-incubated at 37° C. for 30 minutes in the SpectraMax M3 (Molecular Devices) plate reader and then read for 30 minutes at 3-minute intervals. Slopes for each well were calculated and averaged over six technical replicates. Activity is normalized to the maximal and minimal activity observed within the assay.

[1] = tested on: BRAF^V600E melanoma, EGFR^T790M, and EML4-ALK NSCLCs; experiment: Delay of acquired resistance, summary of long term experiments; format: cell-based, human; settings: added to the kinase inhibitor
Experimental: as §1

H1975 cells = experiment: Long term experiments with EGFR^T790M cell lines
Experimental: (§2) In 12 well plates, PC-9 GR or H1975 cells were seeded at 2,000 cells per well and allowed to adhere overnight.

PC-9 GR cells = experiment: Long term experiments with EGFR^T790M cell lines
Experimental: as §2

MEK2 (MAP2K2) = MEK2 (MAP2K2) (Homo sapiens, UniProt P36507); settings: at 1 μM; cited from earlier work
CaMKII = settings: cited from earlier work
CK2 = settings: cited from earlier work
PKCδ = PKCδ (Homo sapiens, UniProt Q05655); settings: cited from earlier work
Fyn = Fyn (Homo sapiens, UniProt P06241); settings: at 1 μM; cited from earlier work
ERK1/2 (MAPK1) = ERK1/2 (MAPK1) (Homo sapiens, UniProt P28482); settings: cited from earlier work
CDK1 = CDK1 (Homo sapiens, UniProt P06493); settings: at 1 μM; cited from earlier work
DYRK1A = DYRK1A (Homo sapiens, UniProt Q13627); settings: at 1 μM; cited from earlier work
PKCζ = PKCζ (Homo sapiens, UniProt Q05513); settings: cited from earlier work
PKA = settings: cited from earlier work
MEK1 and MEK2 kinases = experiment: Immunoblotting of procaspase-3, MEK1 and MEK2 levels; format: cell-based, human; settings: Q-VD-OPh 25 μM added concurrently; 48 hours; A375, PC-9 GR, H3122
Experimental: Cells were lysed using RIPA buffer containing phosphatase (BioVision) and protease inhibitor cocktail (Calbiochem). Protein concentration was determined using the BCA assay (Pierce). Cell lysates containing 8-20 μg of protein were loaded into each lane of 4-20% gradient gels (BioRad) and ran for SDS-PAGE. Proteins were transferred onto PDVF membrane (Millipore) for Western blot analysis. Blots were blocked with BSA for one hour followed by incubation with primary antibody overnight (manufacturer's recommended dilutions). Secondary antibody was incubated for one hour. Blots were then imaged with a ChemiDoc Touch after incubation with SuperSignal West Pico Solution following manufacturer's protocols.

[2] = tested on: A375, PC-9 GR, H3122, K-562 cells; experiment: Q-VD-OPh protection by flow cytometry; format: cell-based, human; settings: Q-VD-OPh 25 μM added concurrently; 48 hours
Experimental: A375 (BRAF^V600E) cells were seeded with 70,000 cells/well in 12-well plates and allowed to adhere overnight. The next day, indicated concentrations of PAC-1, vemurafenib, trametinib, and/or Q-VD-OPh were added and cells were incubated at 37° C. for 48 hours. […] The next day, they were incubated with PAC-1, ceritinib, and/or Q-VD-OPh for 48 hours. K-562 cells were seeded with 35,000 cells/well in 12-well plates.

[3] = H1975 NSCLC cells, PAC-1 5 μM, up to 48 h
[4] = PC-9 GR NSCLC cells, PAC-1 5 μM, up to 48 h

Chain of Fyn (P06241 whole entry, species assumed): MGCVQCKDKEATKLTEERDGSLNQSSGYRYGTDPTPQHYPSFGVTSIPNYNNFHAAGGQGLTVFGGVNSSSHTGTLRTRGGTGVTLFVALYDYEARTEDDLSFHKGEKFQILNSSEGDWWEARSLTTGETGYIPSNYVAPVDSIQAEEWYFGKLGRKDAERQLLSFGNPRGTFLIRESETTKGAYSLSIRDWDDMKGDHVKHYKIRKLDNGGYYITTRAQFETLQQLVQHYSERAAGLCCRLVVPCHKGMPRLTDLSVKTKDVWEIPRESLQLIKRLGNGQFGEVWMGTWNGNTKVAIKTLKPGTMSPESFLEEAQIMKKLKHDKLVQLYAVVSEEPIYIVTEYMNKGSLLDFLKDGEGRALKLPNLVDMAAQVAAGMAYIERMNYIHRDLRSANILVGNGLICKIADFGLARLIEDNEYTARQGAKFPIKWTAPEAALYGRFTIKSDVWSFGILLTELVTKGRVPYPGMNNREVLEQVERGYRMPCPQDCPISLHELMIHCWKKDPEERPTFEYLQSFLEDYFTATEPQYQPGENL
Chain of PKCδ (Q05655 whole entry): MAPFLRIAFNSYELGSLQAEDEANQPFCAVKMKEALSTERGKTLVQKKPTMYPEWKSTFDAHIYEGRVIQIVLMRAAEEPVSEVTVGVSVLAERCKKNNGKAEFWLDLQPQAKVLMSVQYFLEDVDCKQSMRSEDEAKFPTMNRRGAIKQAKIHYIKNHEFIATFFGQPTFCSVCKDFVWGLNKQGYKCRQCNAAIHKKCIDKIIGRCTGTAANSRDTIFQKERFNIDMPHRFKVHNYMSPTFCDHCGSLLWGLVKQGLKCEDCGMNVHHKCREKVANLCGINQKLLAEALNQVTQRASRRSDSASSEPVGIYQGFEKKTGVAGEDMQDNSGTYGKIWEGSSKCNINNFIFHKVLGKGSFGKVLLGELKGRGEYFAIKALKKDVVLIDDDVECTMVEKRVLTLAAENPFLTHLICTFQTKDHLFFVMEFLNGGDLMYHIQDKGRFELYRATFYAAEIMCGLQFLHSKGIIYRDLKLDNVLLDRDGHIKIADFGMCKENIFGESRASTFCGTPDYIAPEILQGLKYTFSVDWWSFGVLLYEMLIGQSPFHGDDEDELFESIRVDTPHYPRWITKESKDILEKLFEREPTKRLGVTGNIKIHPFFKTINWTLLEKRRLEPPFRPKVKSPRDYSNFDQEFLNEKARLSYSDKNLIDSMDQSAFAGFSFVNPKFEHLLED
Chain of MEK2 (MAP2K2) (P36507 whole entry, species assumed): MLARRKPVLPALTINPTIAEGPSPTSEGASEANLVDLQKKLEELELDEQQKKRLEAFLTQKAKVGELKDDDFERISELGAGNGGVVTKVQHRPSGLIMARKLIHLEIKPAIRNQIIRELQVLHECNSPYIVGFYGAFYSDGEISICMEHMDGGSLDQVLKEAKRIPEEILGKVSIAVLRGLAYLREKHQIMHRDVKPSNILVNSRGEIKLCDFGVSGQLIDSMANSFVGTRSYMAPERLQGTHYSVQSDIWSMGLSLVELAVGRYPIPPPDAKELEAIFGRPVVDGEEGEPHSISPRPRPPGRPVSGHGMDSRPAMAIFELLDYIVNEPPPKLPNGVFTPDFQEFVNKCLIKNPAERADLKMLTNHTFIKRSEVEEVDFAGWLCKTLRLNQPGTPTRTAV
Chain of ERK1/2 (MAPK1) (P28482 2-360 limits assumed): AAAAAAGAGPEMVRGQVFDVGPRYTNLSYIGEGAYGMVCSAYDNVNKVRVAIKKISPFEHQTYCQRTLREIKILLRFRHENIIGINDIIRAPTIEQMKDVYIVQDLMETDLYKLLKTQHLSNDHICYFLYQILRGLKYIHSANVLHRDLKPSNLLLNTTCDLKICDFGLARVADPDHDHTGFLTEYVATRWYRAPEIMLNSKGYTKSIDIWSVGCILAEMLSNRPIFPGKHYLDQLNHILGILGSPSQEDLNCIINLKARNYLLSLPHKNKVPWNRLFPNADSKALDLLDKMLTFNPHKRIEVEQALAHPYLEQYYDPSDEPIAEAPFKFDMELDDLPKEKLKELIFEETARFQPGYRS
Chain of PKCζ (Q05513 whole entry): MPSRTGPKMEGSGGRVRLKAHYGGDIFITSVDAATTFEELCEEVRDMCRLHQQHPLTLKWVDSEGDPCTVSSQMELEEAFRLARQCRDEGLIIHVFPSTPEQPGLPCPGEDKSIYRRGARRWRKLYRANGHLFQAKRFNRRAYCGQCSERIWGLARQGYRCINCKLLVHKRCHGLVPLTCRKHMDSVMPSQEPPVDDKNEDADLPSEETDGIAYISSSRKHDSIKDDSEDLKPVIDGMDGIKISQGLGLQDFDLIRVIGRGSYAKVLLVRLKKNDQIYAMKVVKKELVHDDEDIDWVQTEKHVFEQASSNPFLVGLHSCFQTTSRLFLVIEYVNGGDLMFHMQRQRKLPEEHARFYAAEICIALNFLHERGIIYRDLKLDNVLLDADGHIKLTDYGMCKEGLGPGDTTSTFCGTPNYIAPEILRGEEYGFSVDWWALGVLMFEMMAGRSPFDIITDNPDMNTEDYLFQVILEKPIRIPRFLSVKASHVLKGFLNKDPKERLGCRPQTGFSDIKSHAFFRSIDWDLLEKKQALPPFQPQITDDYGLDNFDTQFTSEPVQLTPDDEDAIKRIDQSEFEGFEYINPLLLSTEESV
Chain of CDK1 (P06493 whole entry, species assumed): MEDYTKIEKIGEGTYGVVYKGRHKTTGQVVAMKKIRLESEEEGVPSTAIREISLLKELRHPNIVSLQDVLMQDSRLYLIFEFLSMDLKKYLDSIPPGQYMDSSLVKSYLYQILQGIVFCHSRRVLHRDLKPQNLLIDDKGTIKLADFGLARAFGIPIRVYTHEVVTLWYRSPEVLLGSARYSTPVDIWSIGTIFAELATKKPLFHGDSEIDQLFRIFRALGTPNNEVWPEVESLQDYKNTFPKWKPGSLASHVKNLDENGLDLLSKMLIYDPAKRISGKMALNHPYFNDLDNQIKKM
Chain of CDK1 (P14635 whole entry partner, species assumed): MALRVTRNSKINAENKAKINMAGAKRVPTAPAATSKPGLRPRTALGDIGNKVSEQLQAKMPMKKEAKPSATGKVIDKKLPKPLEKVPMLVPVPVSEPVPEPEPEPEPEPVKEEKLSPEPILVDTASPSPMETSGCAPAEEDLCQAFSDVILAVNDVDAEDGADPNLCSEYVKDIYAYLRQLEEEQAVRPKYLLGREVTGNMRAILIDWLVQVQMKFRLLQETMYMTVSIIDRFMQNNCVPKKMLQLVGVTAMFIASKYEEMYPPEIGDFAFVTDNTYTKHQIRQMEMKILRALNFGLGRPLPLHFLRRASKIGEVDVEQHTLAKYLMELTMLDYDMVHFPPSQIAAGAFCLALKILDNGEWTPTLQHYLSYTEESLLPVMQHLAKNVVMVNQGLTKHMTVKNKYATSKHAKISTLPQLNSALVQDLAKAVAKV

Q: With COc1cc2ncnc(Nc3ccc(F)c(Cl)c3)c2cc1OCCCN1CCOCC1 [gefitinib] as the compound, how does the “activity in PC-9 GR and H1975 cells (FIG. 7A)” value (PC-9 GR and H1975 cells) read?
A: Its value is “inactive”.

Q: For Cc1cc(Nc2ncc(Cl)c(Nc3ccccc3S(=O)(=O)C(C)C)n2)c(OC(C)C)cc1C1CCNCC1 [Ceritinib], which IC50 (Lyn) is on record?
A: The IC50 was 2.31 µM.

Q: What about the IC50 (AKT) of the same compound?
A: The IC50 was over 10 µM.

Q: What about the “cytotoxic effect / cell proliferation” value (H3122 cells) of the same compound?
A: The value was “effective in inhibiting cell proliferation”.

Q: And the resistant clones (H3122 cells; 20 days of treatment)?
A: Its resistant clones is “Resistant clones were visible”.

Q: And the resistant clones (H3122 cells; 32 days of treatment)?
A: The resistant clones was “dramatic increase”.

Q: For CC(=O)Nc1cccc(-n2c(=O)n(C3CC3)c(=O)c3c(Nc4ccc(I)cc4F)n(C)c(=O)c(C)c32)c1 [trametinib], which “cytotoxic effect / cell proliferation” value (H3122 cells) is on record?
A: Its value is “minimal cytotoxic effect”.

Q: Which “time at which resistant colonies were first seen” value (A375 cells) does the source give for CCCS(=O)(=O)Nc1ccc(F)c(C(=O)c2c[nH]c3ncc(-c4ccc(Cl)cc4)cc23)c1F [Vemurafenib] here?
A: Its value is 20 days.

Q: Which caspase-3 activity (caspase-3/-7; [3]) does the source give for C=CCc1cccc(/C=N/NC(=O)CN2CCN(Cc3ccccc3)CC2)c1O [PAC-1] here?
A: Its caspase-3 activity is “Negligible increases”.

Q: What about the caspase-3 activity (caspase-3/-7; K-562 cells, PAC-1 7.5 μM) of the same compound?
A: Its caspase-3 activity is “negligible single-agent activity”.

Q: And the caspase-3 activity (caspase-3/-7; [4])?
A: The caspase-3 activity was “Negligible increases”.

Q: And the “concentration effective in delaying acquired resistance to vemurafenib, osimertinib, and ceritinib” value [1]?
A: The value was 1 to 2 µM.

Q: With C=CC(=O)Nc1cc(Nc2nccc(-c3cn(C)c4ccccc34)n2)c(OC)cc1N(C)CCN(C)C [Osimertinib] as the compound, how does the caspase-3 activity (caspase-3/-7; [3]) read?
A: The caspase-3 activity was “Negligible increases”.

Q: What about the caspase-3 activity (caspase-3/-7; [4]) of the same compound?
A: Its caspase-3 activity is “Negligible increases”.

Q: And the “cytotoxic effect / cell proliferation” value (H1975 cells)?
A: Its value is “very effective”.

Q: And the resistant clones (H1975 cells)?
A: Its resistant clones is “clearly visible”.

Q: What about the resistant clones (PC-9 GR cells) of the same compound?
A: Its resistant clones is “clearly visible; also recorded: resistant clones were visible; also recorded: dramatic increase”.

Q: And the “cytotoxic effect / cell proliferation” value (PC-9 GR cells; 8 days, PAC-1 2 μM, osimertinib 30 nM, trametinib 5 nM)?
A: Its value is “very effective; also recorded: effective in inhibiting cell proliferation”.

Q: Which results are given for Cc1ccc(NC(=O)c2ccc(CN3CCN(C)CC3)cc2)cc1Nc1nccc(-c2cccnc2)n1 [Imatinib]?
A: caspase-3 activity (caspase-3/-7; K-562 cells, PAC-1 7.5 μM): negligible single-agent activity; % Inhibition of MEK2 (MAP2K2) (MEK2 (MAP2K2)): 5.9% at 1 μM; Inhibition of CaMKII (in words) (CaMKII): Not observed; Inhibition of CK2 (in words) (CK2): Not observed; Inhibition of PKCδ (in words) (PKCδ): Not observed; % Inhibition of Fyn (Fyn): 29.6% at 1 μM; Inhibition of ERK1/2 (MAPK1) (in words) (ERK1/2 (MAPK1)): Not observed; % Inhibition of CDK1 (CDK1): 1.8% at 1 μM; % Inhibition of DYRK1A (DYRK1A): 2.2% at 1 μM; Inhibition of PKCζ (in words) (PKCζ): Not observed; Inhibition of PKA (in words) (PKA): Not observed

Q: Which “MEK1/2 cleavage in cells treated with PAC-1/drug combinations” value (MEK1 and MEK2 kinases) does the source give for CC(C)[C@H](NC(=O)c1ccc2ccccc2n1)C(=O)N[C@@H](CC(=O)O)C(=O)COc1c(F)cccc1F [Q-VD-OPh] here?
A: Its value is “attenuated”.

Q: And the “apoptotic cell death in cells treated with PAC-1/drug combinations” value [2]?
A: Its value is “protection”.
